Values quoted from earlier work, collected in publication PMC12661886, “A phase 1/2 study of DS-1594 menin inhibitor in relapsed/refractory acute leukemias” (Journal of Hematology & Oncology, 2025).

How the values were obtained:
[1] = tested on: R/R NPM1mut, NUP98-r, KMT2A-r AML; design: method as in earlier work
[2] = tested on: R/R KMT2A-r ALL/AML/MPAL or R/R NPM1mut AML
[3] = tested on: MV4;11 cells harboring KMT2A-r with CRISPR-Cas9 induced menin mutations; design: method as in doi:10.1182/blood-2024-208887; settings: menin mutations except M327
[4] = tested on: KMT2A-r and NPM1mut R/R AML; design: method as in doi:10.1182/blood-2024-194827
QT and QTc intervals = tested on: QT and QTc intervals; design: method as in Investigator Brochure; settings: predicted by exposure-response analysis; ref Investigator Brochure
[5] = tested on: cell lines of KMT2A-r leukemia harboring MEN1-M327I or MEN1-T349M; design: method as in PMID 38905635

CCN(C(=O)c1cc(F)ccc1Oc1cncnc1N1CC2(CCN(C[C@H]3CC[C@H](NS(=O)(=O)CC)CC3)CC2)C1)C(C)C [revumenib]
CR/CRh rate ([1]; SAVE regimen): 48% | consolidated with an HSCT ([1]; SAVE regimen): 39% | median duration of CR/CRh ([1]; about 9 months median follow-up): not achieved | ORR ([1]; combination with oral decitabine-cedazuridine and venetoclax): 82% | grade 3 or higher QTc prolongation, patients [2]: 14% | median DOR, CR + CRh [2]: 6.4 months | median DOR, KMT2A-r acute leukemias with CR/CRh [2]: about 6 months | median duration of response (DOR), patients with an ORR [2]: 4.3 months | CR + CRh rate ([2]; AUGMENT 101): 23% | overall response rate (ORR) ([2]; AUGMENT 101): 63% | grade 3 or higher differentiation syndrome, patients ([2]; AUGMENT-101): 16% | overall DS rate ([2]; AUGMENT-101 study): about 28%

CNc1nc(NC2CCN(Cc3ccc4c(cc(C#N)n4C[C@H](C)N4CCN(S(C)(=O)=O)CC4)c3C)CC2)c2cc(CC(F)(F)F)sc2n1 [ziftomenib]
median DOR (R/R AML): 6.6 months | responses in the dose finding phase (R/R AML): no significant responses were observed | CR/CRh rate, R/R NPM1mut AML (R/R AML; 600 mg dose): 35% | patients achieving CR/CRh, NPM1mut AML previously treated with venetoclax (R/R AML; 600 mg dose): 5/7 | all-grade DS (R/R AML; KOMET phase 1a and 1b (n = 83)): 21% | grade 3 DS (R/R AML; KOMET phase 1a and 1b (n = 83)): 14% | CR/CRh rate (R/R AML; RP2D 600 mg/day, phase 1b): 25% | IC50 [3]: 22.2 nM

C=C1C[C@@H]2CC[C@H]1[C@@H](C(=O)N1CCC3(CC1)CN(c1ncncc1Oc1ccc(F)cc1C(=O)N(C(C)C)C(C)C)C3)N2 [Enzomenib]
All grade DS, patients [4]: 10.7% | Grade 3 or higher DS, patients [4]: about 7% | CR + CRh rate, KMT2A-r R/R AML ([4]; 200 mg or 300 mg BID): 30% | CR + CRh rate, NPM1mut R/R AML ([4]; 200 mg or 300 mg BID): 47% | ORR, KMT2A-r R/R AML ([4]; 200 mg or 300 mg BID): 65% | ORR, NPM1mut R/R AML ([4]; 200 mg or 300 mg BID): 59%

COc1cc(-c2ccc(CN[C@H]3C[C@@H](O)[C@@H](N(C)c4ncnc5sc(CC(F)(F)F)cc45)C3)cc2)nnc1OC [DS-1594a]
plasma concentration to induce QTc interval prolongation by 10 milliseconds (QT and QTc intervals): around 1000 ng/mL

CCN(C(=O)c1cc(F)ccc1Oc1nncnc1N1CCC2(C1)CN([C@H](CCCN(C)CCOC)C(C)C)C2)C(C)C [bleximenib]
efficacy in menin-mutant cell lines [5]: showed efficacy | IC50 [3]: 3.3 nM
